The term EC50 denotes the midpoint of the concentration-response curve.

For 33 compounds, Emax, EC50 and maximum modulation results are on record in patent US8716284B2, “Adamantyl diamide derivatives and uses of same” (H. Lundbeck A/S, priority 2008, dated 2014).

This experiment concerns the target T1, rat metabotropic glutamate receptor 5 (mGluR5) (Rattus norvegicus, UniProt P31424).
T1 construct: expressed in transfected cells; host or cells: HEK 293
As to the kind of experiment: Calcium mobilization assay (FLIPR) for negative or positive allosteric activity, HEK 293 cells. In kind it is cell-based. Conditions: for Emax: HEK293, negative allosteric modulation, inhibition of EC80 glutamate response, read-out: FLIPR maximum inhibition. The method in brief:
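HEK 293 cells stably expressing rat mGluR5, Fluo-4 loaded in HEPES-buffered HBSS pH 7.4 with 0.1% BSA and probenecid. Compound added with EC20 (potentiation) or EC80 (inhibition) glutamate; fluorescence read over 3 min at room temperature. Basal-subtracted maximum fluorescence change fitted to Hill equation.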
For orientation: Calcium assays in cells follow changes in intracellular calcium, usually with a dye or a luminescent sensor.

[1] abbreviates: positive modulation, increase in EC20 glutamate response.

T1 sequence (P31424 21-1171 isoform P31424-2 limits assumed): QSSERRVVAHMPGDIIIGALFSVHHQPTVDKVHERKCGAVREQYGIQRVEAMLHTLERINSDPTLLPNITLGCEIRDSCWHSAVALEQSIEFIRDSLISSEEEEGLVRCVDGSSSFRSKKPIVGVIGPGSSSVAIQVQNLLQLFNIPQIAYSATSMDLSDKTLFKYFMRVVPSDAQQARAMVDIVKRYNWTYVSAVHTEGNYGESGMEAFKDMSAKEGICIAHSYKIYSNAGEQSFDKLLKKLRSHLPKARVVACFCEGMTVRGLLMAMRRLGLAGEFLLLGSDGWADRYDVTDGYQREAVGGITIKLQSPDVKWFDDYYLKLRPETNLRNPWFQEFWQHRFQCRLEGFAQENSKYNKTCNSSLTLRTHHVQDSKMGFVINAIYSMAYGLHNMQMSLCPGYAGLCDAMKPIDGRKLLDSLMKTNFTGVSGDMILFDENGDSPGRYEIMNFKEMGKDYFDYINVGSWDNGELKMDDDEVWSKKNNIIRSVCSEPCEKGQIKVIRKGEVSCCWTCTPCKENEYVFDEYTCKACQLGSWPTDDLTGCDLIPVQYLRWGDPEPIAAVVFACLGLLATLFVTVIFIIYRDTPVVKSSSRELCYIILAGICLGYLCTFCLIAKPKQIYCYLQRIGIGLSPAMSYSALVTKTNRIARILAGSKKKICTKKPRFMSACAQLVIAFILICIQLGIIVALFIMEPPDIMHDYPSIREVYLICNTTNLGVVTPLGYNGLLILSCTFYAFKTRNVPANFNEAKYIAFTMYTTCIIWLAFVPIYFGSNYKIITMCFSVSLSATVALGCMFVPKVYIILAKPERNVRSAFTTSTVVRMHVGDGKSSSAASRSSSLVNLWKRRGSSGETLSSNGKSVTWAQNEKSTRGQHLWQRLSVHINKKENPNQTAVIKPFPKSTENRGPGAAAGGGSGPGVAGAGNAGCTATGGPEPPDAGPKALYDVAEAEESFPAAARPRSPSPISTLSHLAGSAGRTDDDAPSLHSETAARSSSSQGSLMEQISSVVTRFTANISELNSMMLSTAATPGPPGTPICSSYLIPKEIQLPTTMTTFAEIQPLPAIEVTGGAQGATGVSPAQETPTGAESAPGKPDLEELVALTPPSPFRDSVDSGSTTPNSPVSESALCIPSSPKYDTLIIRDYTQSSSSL

As for `CCOc1cc(C(=O)NC23CC4CC(C2)CC(NC(=O)c2cncc(C)n2)(C4)C3)ccn1` [Example 155, 6-Methyl-pyrazine-2-carboxylic acid {3-[(2-ethoxy-pyridine-4-carbonyl)-amino]-adamantan-1-yl}-amide], the Emax is 70 to 99%.

`Cc1cccc(C(=O)NC23CC4CC(C2)CC(NC(=O)c2ccn(C)n2)(C4)C3)n1` [Example 20, 6-Methyl-pyridine-2-carboxylic acid {3-[(1-methyl-1H-pyrazole-3-carbonyl)-amino]-adamantan-1-yl}-amide]: the Emax is 63 to 99%.

With `COCCCNc1cccc(C(=O)NC23CC4CC(CC(NC(=O)c5ccccn5)(C4)C2)C3)n1` [Example 220, 6-(3-Methoxy-propylamino)-pyridine-2-carboxylic acid {3-[(pyridine-2-carbonyl)-amino]-adamantan-1-yl}-amide], the Emax is 63 to 99%.

As for `Cc1cc(C(=O)NC23CC4CC(CC(NC(=O)c5ccccn5)(C4)C2)C3)no1` [Example 73, Pyridine-2-carboxylic acid {3-[(5-methyl-isoxazole-3-carbonyl)-amino]-adamantan-1-yl}-amide], the Emax lay in the range of 63 to 99%.

Regarding `Cc1cccc(C(=O)NC23CC4CC(C2)CC(NC(=O)c2cccc(NCCCN(C)C)n2)(C4)C3)n1` [Example 236, 6-(3-Dimethylamino-propylamino)-pyridine-2-carboxylic acid {3-[(6-methyl-pyridine-2-carbonyl)-amino]-adamantan-1-yl}-amide], the Emax is 63 to 99%.

Turning to `Cc1cncc(C(=O)NC23CC4CC(CC(NC(=O)c5ccc(F)c(C)c5)(C4)C2)C3)n1` [Example 166, 6-Methyl-pyrazine-2-carboxylic acid [3-(4-fluoro-3-methyl-benzoylamino)-adamantan-1-yl]-amide], the Emax is 63 to 99%.

On to `Cc1cccc(C(=O)NC23CC4CC(C2)CC(NC(=O)c2cccc(NCCN(C)C)n2)(C4)C3)n1` [Example 232, 6-(2-Dimethylamino-ethylamino)-pyridine-2-carboxylic acid {3-[(6-methyl-pyridine-2-carbonyl)-amino]-adamantan-1-yl}-amide], for which the Emax was 63 to 99%.

Take `Cc1cccc(C(=O)NC23CC4CC(CC(NC(=O)c5cccnc5)(C4)C2)C3)n1` [Example 115, 6-Methyl-pyridine-2-carboxylic acid {3-[(pyridine-3-carbonyl)-amino]-adamantan-1-yl}-amide]: the Emax was in the range of 70 to 99%.

As for `Cc1ccnc(C(=O)NC23CC4CC(CC(NC(=O)c5cccc(F)c5)(C4)C2)C3)n1` [Example 182, 4-Methyl-pyrimidine-2-carboxylic acid [3-(3-fluoro-benzoylamino)-adamantan-1-yl]-amide], the Emax is 63 to 99%.

For `COCCN(C)c1cccc(C(=O)NC23CC4CC(CC(NC(=O)c5ccccn5)(C4)C2)C3)n1` [Example 225, 6-[(2-Methoxy-ethyl)-methyl-amino]-pyridine-2-carboxylic acid {3-[(pyridine-2-carbonyl)-amino]-adamantan-1-yl}-amide], the Emax is 63 to 99%.

Take `Cc1cncc(C(=O)NC23CC4CC(CC(NC(=O)c5ccc(F)cc5)(C4)C2)C3)n1` [Example 177, 6-Methyl-pyrazine-2-carboxylic acid [3-(4-fluoro-benzoylamino)-adamantan-1-yl]-amide]: the Emax fell in the range of 63 to 99%.

In the case of `CN(C)C1CCN(c2cccc(C(=O)NC34CC5CC(CC(NC(=O)c6ccccn6)(C5)C3)C4)n2)C1` (stereo not shown) [Example 199, 6-(3-Dimethylamino-pyrrolidin-1-yl)-pyridine-2-carboxylic acid {3-[(pyridine-2-carbonyl)-amino]-adamantan-1-yl}-amide], the Emax was in the range of 63 to 99%.

Take `O=C(NC12CC3CC(C1)CC(NC(=O)c1nccc(C(F)(F)F)n1)(C3)C2)c1ccccn1` [Example 113, 4-Trifluoromethyl-pyrimidine-2-carboxylic acid {3-[(pyridine-2-carbonyl)-amino]-adamantan-1-yl}-amide]: the Emax lay in the range of 70 to 99%.

As to `CN(CCO)c1cccc(C(=O)NC23CC4CC(CC(NC(=O)c5ccccn5)(C4)C2)C3)n1` [Example 202, 6-[(2-Hydroxy-ethyl)-methyl-amino]-pyridine-2-carboxylic acid {3-[(pyridine-2-carbonyl)-amino]-adamantan-1-yl}-amide], the Emax lay in the range of 63 to 99%.

Regarding `Cc1cccc2nc(C(=O)NC34CC5CC(CC(NC(=O)c6ccccn6)(C5)C3)C4)cn12` [Example 92, 5-Methyl-imidazo[1,2-a]pyridine-2-carboxylic acid {3-[(pyridine-2-carbonyl)-amino]-adamantan-1-yl}-amide], the Emax is 63 to 99%.

For `COCCN(C)c1cccc(C(=O)NC23CC4CC(CC(NC(=O)c5cccc(C)n5)(C4)C2)C3)n1` [Example 207, 6-[(2-Methoxy-ethyl)-methyl-amino]-pyridine-2-carboxylic acid{3-[(6-methyl-pyridine-2-carbonyl)-amino]-adamantan-1-yl}-amide], the Emax fell in the range of 63 to 99%.

Turning to `Cc1cccc(C(=O)NC23CC4CC(C2)CC(NC(=O)c2cc(C)nc(C)n2)(C4)C3)n1` [Example 118, 2,6-Dimethyl-pyrimidine-4-carboxylic acid {3-[(6-methyl-pyridine-2-carbonyl)-amino]-adamantan-1-yl}-amide], the Emax lay in the range of 70 to 99%.

In the case of `O=C(NC12CC3CC(C1)CC(NC(=O)c1ccno1)(C3)C2)c1ccccn1` [Example 77, Pyridine-2-carboxylic acid {3-[(isoxazole-5-carbonyl)-amino]-adamantan-1-yl}-amide], the Emax lay within 63 to 99%.

For `O=C(NC12CC3CC(C1)CC(NC(=O)c1cccc(Cl)c1)(C3)C2)c1cccc(Cl)c1` [Example 3, N,N′-(1,3-adamantylene)bis(3-chloro-benzamide)], the Emax lay within 90 to 99%.

Regarding `Cc1cncc(C(=O)NC23CC4CC(C2)CC(NC(=O)c2cccc(Cl)c2F)(C4)C3)n1` [Example 152, 6-Methyl-pyrazine-2-carboxylic acid [3-(3-chloro-2-fluoro-benzoylamino)-adamantan-1-yl]-amide], the Emax was in the range of 70 to 99%.

As to `Cc1cccc(C(=O)NC23CC4CC(C2)CC(NC(=O)c2nn(C)c5ccccc25)(C4)C3)n1` [Example 37, 1-Methyl-1H-indazole-3-carboxylic acid {3-[(6-methyl-pyridine-2-carbonyl)-amino]-adamantan-1-yl}-amide], the Emax was in the range of 63 to 99%.

On to `Cc1cc(C(=O)NC23CC4CC(C2)CC(NC(=O)c2cncc(C)n2)(C4)C3)ccn1` [Example 156, 6-Methyl-pyrazine-2-carboxylic acid {3-[(2-methyl-pyridine-4-carbonyl)-amino]-adamantan-1-yl}-amide], for which the Emax was in the range of 70 to 99%.

Consider `O=C(NC12CC3CC(C1)CC(NC(=O)c1cccs1)(C3)C2)c1cccs1` [Example 14, N,N′-(1,3-adamantylene)bis(thiophene-2-carboxamide)], for which the Emax is 63 to 99%.

In the case of `O=C(NC12CC3CC(C1)CC(NC(=O)C1CCCC1)(C3)C2)c1ccccn1` [Example 85, Pyridine-2-carboxylic acid [3-(cyclopentanecarbonyl-amino)-adamantan-1-yl]-amide], the Emax fell in the range of 63 to 99%.

As to `Cc1cncc(C(=O)NC23CC4CC(C2)CC(NC(=O)c2ccc5cnccc5n2)(C4)C3)n1` [Example 174, [1,6]Naphthyridine-2-carboxylic acid {3-[(6-methyl-pyrazine-2-carbonyl)-amino]-adamantan-1-yl}-amide], the Emax lay in the range of 63 to 99%.

In the case of `Cc1cccc2nc(C(=O)NC34CC5CC(CC(NC(=O)c6cccc(F)c6)(C5)C3)C4)cn12` [Example 103, 5-Methyl-imidazo[1,2-a]pyridine-2-carboxylic acid [3-(3-fluoro-benzoylamino)-adamantan-1-yl]-amide], the Emax was in the range of 63 to 99%.

In the case of `Cc1cncc(C(=O)NC23CC4CC(CC(NC(=O)c5cc(-c6ccc(F)cc6)ncn5)(C4)C2)C3)n1` [Example 256, 6-(4-Fluoro-phenyl)-pyimidine-4-carboxylic acid {3-[(6-methyl-pyrazine-2-carbonyl)-aminpo]-adamantan-1-yl}-amide], under setting [1], the EC50 amounted to 0.3 µM and the maximum modulation came to 170%.

As for `O=C(NC12CC3CC(C1)CC(NC(=O)c1cccc(NCCCO)n1)(C3)C2)c1ccccn1` [Example 203, 6-(3-Hydroxy-propylamino)-pyridine-2-carboxylic acid {3-[(pyridine-2-carbonyl)-amino]-adamantan-1-yl}-amide], the Emax lay within 63 to 99%.

Regarding `Cc1cc(F)cc(C(=O)NC23CC4CC(C2)CC(NC(=O)c2cncc(C)n2)(C4)C3)c1` [Example 158, 6-Methyl-pyrazine-2-carboxylic acid [3-(3-fluoro-5-methyl-benzoylamino)-adamantan-1-yl]-amide], the Emax was 70 to 99%.

For the compound `COc1cccc(C(=O)NC23CC4CC(C2)CC(NC(=O)c2cccc(C)n2)(C4)C3)c1` [Example 43, 6-Methyl-pyridine-2-carboxylic acid [3-(3-methoxy-benzoylamino)-adamantan-1-yl]-amide], the Emax lay within 63 to 99%.

Regarding `Cc1cccc(C(=O)NC23CC4CC(CC(NC(=O)c5ccc6nccn6c5)(C4)C2)C3)n1` [Example 53, Imidazo[1,2-a]pyridine-6-carboxylic acid {3-[(6-methyl-pyridine-2-carbonyl)-amino]-adamantan-1-yl}-amide], the Emax was in the range of 63 to 99%.

Consider `Cc1cccc(C(=O)NC23CC4CC(C2)CC(NC(=O)c2csc(C)n2)(C4)C3)n1` [Example 136, 6-Methyl-pyridine-2-carboxylic acid {3-[(2-methyl-thiazole-4-carbonyl)-amino]-adamantan-1-yl}-amide], for which the Emax was in the range of 70 to 99%.

As for `Cc1cc(C(=O)NC23CC4CC(CC(NC(=O)c5ccccn5)(C4)C2)C3)nn1C` [Example 109, Pyridine-2-carboxylic acid {3-[(1,5-dimethyl-1H-pyrazole-3-carbonyl)-amino]-adamantan-1-yl}-amide], the Emax lay in the range of 70 to 99%.
